Laboratory results reported in patent publication US10550105B2 (Ribon Therapeutics Inc., priority 2018, dated 2020).

molecular target: PARP7 (Homo sapiens (Human), UniProt Q7Z3E1); test: Enzymatic assay for inhibition of PARP7: TR-FRET displacement of biotinylated Probe A from the TIPARP active site; type: binding; conditions: Table A-1
Procedure, shortened: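 Titrated compounds compete with the biotinylated probe; after an additional 30 min incubation at 25° C, time-delayed fluorescence (90 μs) is measured. Inhibition curves use a Hill coefficient that normally floats but may be held at 1.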

Chain of PARP7 (Q7Z3E1 whole entry): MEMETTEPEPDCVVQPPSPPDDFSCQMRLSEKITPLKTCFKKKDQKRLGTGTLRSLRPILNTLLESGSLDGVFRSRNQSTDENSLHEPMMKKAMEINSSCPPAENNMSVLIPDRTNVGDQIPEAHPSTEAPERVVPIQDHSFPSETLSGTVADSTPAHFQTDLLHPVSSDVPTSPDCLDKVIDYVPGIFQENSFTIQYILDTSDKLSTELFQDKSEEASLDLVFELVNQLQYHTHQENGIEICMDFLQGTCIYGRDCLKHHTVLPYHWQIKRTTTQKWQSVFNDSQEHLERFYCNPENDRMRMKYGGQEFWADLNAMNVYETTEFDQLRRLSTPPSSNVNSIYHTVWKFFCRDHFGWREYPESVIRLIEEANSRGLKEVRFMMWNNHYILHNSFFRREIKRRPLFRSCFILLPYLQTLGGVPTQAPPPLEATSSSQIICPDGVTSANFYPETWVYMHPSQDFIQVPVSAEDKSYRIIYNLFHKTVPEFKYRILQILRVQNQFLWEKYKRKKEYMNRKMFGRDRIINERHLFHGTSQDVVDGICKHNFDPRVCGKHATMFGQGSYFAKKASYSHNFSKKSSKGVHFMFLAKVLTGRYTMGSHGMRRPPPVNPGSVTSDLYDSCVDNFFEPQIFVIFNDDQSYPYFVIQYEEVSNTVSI

| SMILES | IC50 [µM] |
| --- | --- |
| N#Cc1ccc(N2CCN(C(=O)c3ccnc(OCC4c5ccccc5CN4c4cn[nH]c(=O)c4C(F)(F)F)c3)CC2)nc1 (centres unmarked) [Example 381, 6-(4-(2-((2-(6-Oxo-5-(trifluoromethyl)-1,6-dihydropyridazin-4-yl)isoindolin-1-yl)methoxy)isonicotinoyl)piperazin-1-yl)nicotinonitrile] | < 0.1 |
| O=c1[nH]ncc(N2Cc3cc(F)c(OCCO)cc3C2)c1C(F)(F)F [Example 245, 5-(5-Fluoro-6-(2-hydroxyethoxy)isoindolin-2-yl)-4-(trifluoromethyl)pyridazin-3(2H)-one] | < 0.1 |
| N#Cc1ccc(N2CCN(C(=O)CCOC[C@@H]3CCCN3c3cn[nH]c(=O)c3C#N)CC2)nc1 [Example 127, 5-[(2S)-2-([3-[4-(5-cyanopyridin-2-yl)piperazin-1-yl]-3-oxopropoxy]methyl)pyrrolidin-1-yl]-3-oxo-2,3-dihydropyridazine-4-carbonitrile] | < 0.1 |
| CC(=O)N1CCN(CCOc2cccc3c2CN(c2cn[nH]c(=O)c2Cl)C3)CC1 [Example 230, 5-(4-(2-(4-Acetylpiperazin-1-yl)ethoxy)isoindolin-2-yl)-4-chloropyridazin-3(2H)-one] | 0.1 to 1 |
| N#Cc1ccc(N2CCN(C(=O)C/C=C\OC[C@H]3c4ccccc4CN3c3cn[nH]c(=O)c3C(F)(F)F)CC2)nc1 (single isomer, unassigned; isomer b) [Example 79 Isomer B] | < 0.1 |
| O=c1[nH]ncc(N2Cc3cccc(OCc4ccccn4)c3C2)c1C(F)(F)F [Example 198, 5-(4-(Pyridin-2-ylmethoxy)isoindolin-2-yl)-4-(trifluoromethyl)pyridazin-3(2H)-one] | < 0.1 |
| O=c1[nH]ncc(N2Cc3cccc(OCCO)c3C2)c1Cl [Example 161, 4-Chloro-5-(4-(2-hydroxyethoxy)isoindolin-2-yl)pyridazin-3(2H)-one] | 0.1 to 1 |
| N#Cc1ccc(NCCC(=O)Nc2cccc(OCC3c4ccccc4CN3c3cn[nH]c(=O)c3C(F)(F)F)c2)nc1 (centres unmarked) [Example 394, 3-((5-Cyanopyridin-2-yl)amino)-N-(3-((2-(6-oxo-5-(trifluoromethyl)-1,6-dihydropyridazin-4-yl)isoindolin-1-yl)methoxy)phenyl)propanamide] | < 0.1 |
| O=c1[nH]ncc(N2Cc3nccc(OCCN4CCOCC4)c3C2)c1C(F)(F)F [Example 10, 5-[4-[2-(morpholin-4-yl)ethoxy]-5H,6H,7H-pyrrolo[3,4-b]pyridin-6-yl]-4-(trifluoromethyl)-2,3-dihydropyridazin-3-one] | 0.1 to 1 |
| O=c1[nH]ncc(N2Cc3cc(F)c(OC4CCNCC4)cc3C2)c1C(F)(F)F [Example 279, 5-(5-Fluoro-6-(piperidin-4-yloxy)isoindolin-2-yl)-4-(trifluoromethyl)pyridazin-3(2H)-one] | < 0.1 |
| O=C(COC[C@@H]1CCCN1c1cn[nH]c(=O)c1C(F)(F)F)NC1CCC(Nc2ccccn2)CC1 (single isomer, unassigned; isomer b) [Example 80 Isomer B] | 0.1 to 1 |
| O=c1[nH]ncc(N2Cc3cccc(OC4CCOC4)c3C2)c1C(F)(F)F (centres unmarked) [Example 203, 5-(4-((Tetrahydrofuran-3-yl)oxy)isoindolin-2-yl)-4-(trifluoromethyl)pyridazin-3(2H)-one] | < 0.1 |
| O=c1[nH]ncc(N2Cc3ccccc3[C@@H]2CO)c1C(F)(F)F [Example 246, (R)-5-(1-(Hydroxymethyl)isoindolin-2-yl)-4-(trifluoromethyl)pyridazin-3(2H)-one] | ≥ 1 |
| CN1CCC(Oc2cccc3c2CN(c2cn[nH]c(=O)c2Cl)C3)C1 (centres unmarked) [Example 259, 4-Chloro-5-(4-((1-methylpyrrolidin-3-yl)oxy)isoindolin-2-yl)pyridazin-3(2H)-one] | ≥ 1 |
| O=c1[nH]ncc(N2Cc3cccc(OCc4ccncc4)c3C2)c1C(F)(F)F [Example 196, 5-(4-(Pyridin-4-ylmethoxy)isoindolin-2-yl)-4-(trifluoromethyl)pyridazin-3(2H)-one] | < 0.1 |
| O=c1[nH]ncc(N2Cc3cc(OCCO)cc(F)c3C2)c1C(F)(F)F [Example 323, 5-(4-Fluoro-6-(2-hydroxyethoxy)isoindolin-2-yl)-4-(trifluoromethyl)pyridazin-3(2H)-one] | < 0.1 |

Further lines, results first:

| IC50 [µM] | SMILES |
| --- | --- |
| < 0.1 | Cc1ccc(N2CCN(C(=O)c3cccc(OCC4c5ccccc5CN4c4cn[nH]c(=O)c4C(F)(F)F)c3)CC2)nc1 (centres unmarked) [Example 403, 5-(1-((3-(4-(5-Methylpyridin-2-yl)piperazine-1-carbonyl)phenoxy)methyl)isoindolin-2-yl)-4-(trifluoromethyl)pyridazin-3(2H)-one] |
| < 0.1 | C[C@@H](COCCC(=O)N1CC[C@@H]2[C@H]1CCN2c1ncc(C(F)(F)F)cn1)Nc1cn[nH]c(=O)c1C(F)(F)F [Example 688, 5-(((S)-1-(3-Oxo-3-((3aR,6aR)-4-(5-(trifluoromethyl)pyrimidin-2-yl)hexahydropyrrolo[3,2-b]pyrrol-1(2H)-yl)propoxy)propan-2-yl)amino)-4-(trifluoromethyl)pyridazin-3(2H)-one] |
| < 0.1 | O=C(C[C@H]1CC[C@H](CNc2cn[nH]c(=O)c2C(F)(F)F)O1)N1CCN(c2ccc(C(F)(F)F)cn2)CC1 (single isomer, unassigned) [Example 546 Isomer B] |
| < 0.1 | C[C@@H](COCC(O)CN1CCN(c2ncc(C(F)(F)F)cn2)CC1)Nc1cn[nH]c(=O)c1C(F)(F)F (stereo partly drawn) [Example 626, 5-(((2S)-1-(2-Hydroxy-3-(4-(5-(trifluoromethyl)pyrimidin-2-yl)piperazin-1-yl)propoxy)propan-2-yl)amino)-4-(trifluoromethyl)pyridazin-3(2H)-one] |
| 0.1 to 1 | C[C@H](COCCC(=O)N1CCN(c2ncc(Cl)cn2)CC1)Oc1cn[nH]c(=O)c1C(F)(F)F [Example 543 Isomer D, (R)-5-(1-(3-(4-(5-chloropyrimidin-2-yl)piperazin-1-yl)-3-oxopropoxy)propan-2-yloxy)-4-(trifluoromethyl)pyridazin-3(2H)-one] |
| < 0.1 | N#Cc1ccc(N2CCN(C(=O)CCCOCc3cccc4c3CN(c3cn[nH]c(=O)c3C(F)(F)F)C4)CC2)nc1 [Example 496, 6-(4-(4-((2-(6-Oxo-5-(trifluoromethyl)-1,6-dihydropyridazin-4-yl)isoindolin-4-yl)methoxy)butanoyl)piperazin-1-yl)nicotinonitrile] |
| < 0.1 | C[C@@H](COCCC(=O)N1CCN(c2ncc(C(F)(F)F)cn2)CC1)Nc1cn[nH]c(=O)c1Cl [Example 599, (S)-4-Chloro-5-(1-(3-oxo-3-(4-(5-(trifluoromethyl)pyrimidin-2-yl)piperazin-1-yl)propoxy)propan-2-ylamino)pyridazin-3(2H)-one] |
| < 0.1 | C[C@@H](COCCC(=O)N1CCN(c2ccc(C(F)(F)F)cn2)CC1)Nc1cn[nH]c(=O)c1C(F)(F)F [Example 564, 5-[[(2S)-1-(3-Oxo-3-[4-[5-(trifluoromethyl)pyridin-2-yl]piperazin-1-yl]propoxy)propan-2-yl]amino]-4-(trifluoromethyl)-2,3-dihydropyridazin-3-one] |
| < 0.1 | O=C(C[C@@H]1CC[C@@H](CNc2cn[nH]c(=O)c2C(F)(F)F)O1)N1CCN(c2ncc(Cl)cn2)CC1 (single isomer, unassigned) [Example 567 Isomer C] |
| < 0.1 | COC[C@@H](COCCC(=O)N1CCN(c2cnc(Cl)cn2)CC1)Oc1cn[nH]c(=O)c1C(F)(F)F [Example 696, (S)-5-((1-(3-(4-(5-Chloropyrazin-2-yl)piperazin-1-yl)-3-oxopropoxy)-3-methoxypropan-2-yl)oxy)-4-(trifluoromethyl)pyridazin-3(2H)-one] |
| < 0.1 | CN(CCOc1cn[nH]c(=O)c1C(F)(F)F)CCC(=O)N1CCN(c2ccc(C#N)cn2)CC1 [Example 516] |
| < 0.1 | CN(CCC(=O)N1CCN(c2ccc(C#N)cn2)CC1)C[C@@H]1c2ccccc2CN1c1cn[nH]c(=O)c1C(F)(F)F [Example 427, (S)-6-(4-(3-(Methyl((2-(6-oxo-5-(trifluoromethyl)-1,6-dihydropyridazin-4-yl)isoindolin-1-yl)methyl)amino)propanoyl)piperazin-1-yl)nicotinonitrile] |
| < 0.1 | O=C(C[C@@H]1CC[C@@H](CNc2cn[nH]c(=O)c2C(F)(F)F)O1)N1CCN(c2ccc(C(F)(F)F)cn2)CC1 (single isomer, unassigned) [Example 546 Isomer A] |
| 0.1 to 1 | O=C(C[C@@H]1CC[C@@H](COc2cn[nH]c(=O)c2C(F)(F)F)O1)N1CCN(c2ccc(C(F)(F)F)cn2)CC1 (single isomer, unassigned) [Example 545 Isomer A] |
| ≥ 1 | O=C(C[C@H]1CC[C@H](COc2cn[nH]c(=O)c2Cl)O1)N1CCN(c2ncc(Cl)cn2)CC1 (single isomer, unassigned) [Example 566 Isomer B] |
| 0.1 to 1 | O=C(c1cccc(OCC2CCCN2c2cn[nH]c(=O)c2C(F)(F)F)c1)N1CCn2c(nnc2C(F)(F)F)C1 (centres unmarked) [Example 436, 4-(Trifluoromethyl)-5-(2-((3-(3-(trifluoromethyl)-5,6,7,8-tetrahydro-[1,2,4]triazolo[4,3-a]pyrazine-7-carbonyl)phenoxy)methyl)pyrrolidin-1-yl)pyridazin-3(2H)-one] |
| ≥ 1 | O=C(CCOC[C@@H](Nc1cn[nH]c(=O)c1C(F)(F)F)[C@@H]1CCOC1)N1CCN(c2ncc(C(F)(F)F)cn2)CC1 (single isomer, unassigned) [Example 614 Isomer A] |
| < 0.1 | C[C@@H](O)[C@@H](COCCC(=O)N1CCN(c2ncc(C(F)(F)F)cn2)CC1)Nc1cn[nH]c(=O)c1C(F)(F)F [Example 610, 5-[[(2R,3R)-3-Hydroxy-1-(3-oxo-3-[4-[5-(trifluoromethyl)pyrimidin-2-yl]piperazin-1-yl]propoxy)butan-2-yl]amino]-4-(trifluoromethyl)-2,3-dihydropyridazin-3-one] |
| < 0.1 | C[C@@H](COCCC(=O)N1CCN(c2ncc(C(F)(F)F)cn2)CC1)Nc1cn[nH]c(=O)c1Br [Example 601, 4-Bromo-5-[[(2S)-1-(3-oxo-3-[4-[5-(trifluoromethyl)pyrimidin-2-yl]piperazin-1-yl]propoxy)propan-2-yl]amino]-2,3-dihydropyridazin-3-one] |
